In patent US20090239841A1, “Diaryl Ureas as CB1 Antagonists” (priority 2004, published 2009):

Biological target: T1, hCB1 (Homo sapiens, UniProt P21554)
T1 construct: made in house; host or cells: Sf9 insect cells (baculovirus), P2 membranes
Experiment: Agonist-induced GTP binding (GTPγ35S) assay at CB1, Example 8
Assay type: biochemical
Conditions: IC50 at CB1, determined as described in Example 8; read-out: IC50
How it was run: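 Membranes from Sf9 cells co-expressing hCB1 and heterotrimeric G-protein (10 μg protein) in Tris pH 7.4 buffer with 5 μM GDP. Test compounds (10^−10–10^−5 M) competed against 1 nM CP55,940 with […] GTPγ35S, 60 min at room temperature. Filter-bound radioactivity by scintillation, expressed as percent above basal.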

T1 sequence (P21554 whole entry): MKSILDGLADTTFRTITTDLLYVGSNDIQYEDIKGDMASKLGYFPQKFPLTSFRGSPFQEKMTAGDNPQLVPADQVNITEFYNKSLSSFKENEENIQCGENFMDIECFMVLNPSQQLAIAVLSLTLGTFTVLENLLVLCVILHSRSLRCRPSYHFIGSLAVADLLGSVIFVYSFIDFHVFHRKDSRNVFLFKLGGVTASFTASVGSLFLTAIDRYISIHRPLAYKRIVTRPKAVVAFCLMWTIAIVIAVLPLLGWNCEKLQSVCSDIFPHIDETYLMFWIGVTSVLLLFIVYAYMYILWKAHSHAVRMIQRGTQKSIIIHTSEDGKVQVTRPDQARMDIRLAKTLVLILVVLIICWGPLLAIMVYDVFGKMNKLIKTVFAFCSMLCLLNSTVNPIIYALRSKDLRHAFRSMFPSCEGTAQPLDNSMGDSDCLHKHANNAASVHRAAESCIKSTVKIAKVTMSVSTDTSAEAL

IC50, < 2000 nM:
CCOC(=O)c1cccc(NC(=O)Nc2ccc(C)c(Cl)c2)c1 [Compound 770, ethyl 3-({[(3-chloro-4-methylphenyl)amino]carbonyl}amino)benzoate]
COC(=O)c1cccc(NC(=O)Nc2ccc(CC#N)cc2)c1 [Compound 712, methyl 3-[({[4-(cyanomethyl)phenyl]amino}carbonyl)amino]benzoate]
CCc1ccc(NC(=O)Nc2ccc(C(C)C)cc2)cc1 [Compound 332, 1-(4-ethylphenyl)-3-(4-isopropylphenyl)urea]
CC(C)Oc1ccc(NC(=O)Nc2ccccc2OC(F)F)cc1 [Compound 537, 1-[2-(difluoromethoxy)phenyl]-3-(4-isopropoxyphenyl)urea]
CCc1ccc(NC(=O)Nc2ccc(C)c(C)c2)cc1 [Compound 436, 1-(3,4-dimethylphenyl)-3-(4-ethylphenyl)urea]
CC(C)Oc1cccc(NC(=O)Nc2cc(F)cc(F)c2)c1 [Compound 708, 1-(3,5-difluorophenyl)-3-(3-isopropoxyphenyl)urea]
Cc1ccc(NC(=O)Nc2cccc(OC(C)C)c2)cc1 [Compound 298, N-(3-isopropoxyphenyl)-N′-(4-methylphenyl)urea]
CCOC(=O)c1ccc(NC(=O)Nc2ccccc2Br)cc1 [Compound 764, ethyl 4-({[(2-bromophenyl)amino]carbonyl}amino)benzoate]
Cc1ccc(NC(=O)Nc2ccc(O)cc2)cc1F [Compound 760, 1-(3-fluoro-4-methylphenyl)-3-(4-hydroxyphenyl)urea]
CCOC(=O)c1cccc(NC(=O)Nc2cccc(OCC)c2)c1 [Compound 661, ethyl 3-({[(3-ethoxyphenyl)amino]carbonyl}amino)benzoate]
COc1ccc(NC(=O)Nc2ccc(C)c(Cl)c2)cc1 [Compound 622, 1-(3-chloro-4-methylphenyl)-3-(4-methoxyphenyl)urea]
CCCc1ccc(NC(=O)Nc2ccccc2)cc1 [Compound 291, N-phenyl-N′-(4-propylphenyl)urea]
O=C(Nc1ccc(Cl)cc1)Nc1ccc2c(c1)CCC2 [Compound 443, 1-(4-chlorophenyl)-3-(2,3-dihydro-1H-inden-5-yl)urea]
COc1cccc(NC(=O)Nc2cccc(OC(F)F)c2)c1 [Compound 553, 1-[3-(difluoromethoxy)phenyl]-3-(3-methoxyphenyl)urea]
CC(=O)c1ccc(NC(=O)Nc2ccc(CC#N)cc2)cc1 [Compound 505, 1-(4-acetylphenyl)-3-[4-(cyanomethyl)phenyl]urea]
CCCc1ccc(NC(=O)Nc2ccc(F)c(C)c2)cc1 [Compound 656, 1-(4-fluoro-3-methylphenyl)-3-(4-propylphenyl)urea]
O=C(Nc1ccc(OC(F)F)cc1)Nc1ccc(Cl)cn1 [Compound 634, 1-(5-chloropyridin-2-yl)-3-[4-(difluoromethoxy)phenyl]urea]
COC(=O)c1ccc(NC(=O)Nc2cccc(OC(F)F)c2)cc1 [Compound 677, methyl 4-[({[3-(difluoromethoxy)phenyl]amino}carbonyl)amino]benzoate]
CC(C)Oc1ccc(NC(=O)Nc2cccc(F)c2)cc1 [Compound 367, 1-(3-fluorophenyl)-3-(4-isopropoxyphenyl)urea]
CC(C)c1ccc(NC(=O)Nc2cccc(C#N)c2)cc1 [Compound 346, 1-(3-cyanophenyl)-3-(4-isopropylphenyl)urea]
CCOC(=O)c1cccc(NC(=O)Nc2ccc(F)c(F)c2)c1 [Compound 768, ethyl 3-({[(3,4-difluorophenyl)amino]carbonyl}amino)benzoate]
CCCc1ccc(NC(=O)Nc2ccc(C)c(C)c2)cc1 [Compound 654, 1-(3,4-dimethylphenyl)-3-(4-propylphenyl)urea]
CCOc1ccc(NC(=O)Nc2ccc(CC#N)cc2)cc1 [Compound 587, 1-[4-(cyanomethyl)phenyl]-3-(4-ethoxyphenyl)urea]
COc1cccc(NC(=O)Nc2ccc(CC#N)cc2)c1 [Compound 585, 1-[4-(cyanomethyl)phenyl]-3-(3-methoxyphenyl)urea]
CCOc1cccc(NC(=O)Nc2cccc(CC)c2)c1 [Compound 384, 1-(3-ethoxyphenyl)-3-(3-ethylphenyl)urea]
CCc1ccc(NC(=O)Nc2ccc([N+](=O)[O-])cc2)cc1 [Compound 487, 1-(4-ethylphenyl)-3-(4-nitrophenyl)urea]
CCCc1ccc(NC(=O)Nc2cccc(C#N)c2)cc1 [Compound 350, 1-(3-cyanophenyl)-3-(4-propylphenyl)urea]
N#CCc1ccc(NC(=O)Nc2ccc(F)cc2)cc1 [Compound 462, 1-[4-(cyanomethyl)phenyl]-3-(4-fluorophenyl)urea]
CCOc1ccc(NC(=O)Nc2ccc(Cl)c(Cl)c2)cc1 [Compound 624, 1-(3,4-dichlorophenyl)-3-(4-ethoxyphenyl)urea]
O=C(Nc1cccc(OC(F)F)c1)Nc1cccc([N+](=O)[O-])c1 [Compound 565, 1-[3-(difluoromethoxy)phenyl]-3-(3-nitrophenyl)urea]
CCOC(=O)c1ccc(NC(=O)Nc2ccc(O)cc2)cc1 [Compound 748, ethyl 4-({[(4-hydroxyphenyl)amino]carbonyl}amino)benzoate]
CCOc1ccc(NC(=O)Nc2ccc(C(C)=O)cc2)cc1 [Compound 413, 1-(4-acetylphenyl)-3-(4-ethoxyphenyl)urea]
CCCc1ccccc1NC(=O)Nc1cccc(OC(F)F)c1 [Compound 578, 1-[3-(difluoromethoxy)phenyl]-3-(2-propylphenyl)urea]
CCCOc1ccc(NC(=O)Nc2cccc(OC)c2)cc1 [Compound 546, 1-(3-methoxyphenyl)-3-(4-propoxyphenyl)urea]
N#CCc1ccc(NC(=O)Nc2cccc(F)c2)cc1 [Compound 461, 1-[4-(cyanomethyl)phenyl]-3-(3-fluorophenyl)urea]
CC(C)Oc1ccc(NC(=O)Nc2ccc(C(C)C)cc2)cc1 [Compound 575, 1-(4-isopropoxyphenyl)-3-(4-isopropylphenyl)urea]
N#CCOc1ccc(NC(=O)Nc2cccc([N+](=O)[O-])c2)cc1 [Compound 600, 1-[4-(cyanomethoxy)phenyl]-3-(3-nitrophenyl)urea]
Cc1cc(NC(=O)Nc2cccc(OC(F)F)c2)ccc1F [Compound 697, 1-[3-(difluoromethoxy)phenyl]-3-(4-fluoro-3-methylphenyl)urea]
CCC(=O)c1ccc(NC(=O)Nc2cccc(Cl)c2)cc1 [Compound 493, 1-(3-chlorophenyl)-3-(4-propionylphenyl)urea]

Same assay, conditions: Table I; IC50 at CB1, GTP binding with 1 nM CP55,940; read-out: IC50

IC50, < 2000 nM:
CCc1ccc(NC(=O)Nc2ccc(OC(F)F)c(OC)c2)cc1 [Compound 53, N-[4-(difluoromethoxy)-3-methoxyphenyl]-N′-(4-ethylphenyl)urea]
CC(C)Oc1cccc(NC(=O)Nc2ccccc2)c1 [Compound 49, N-(3-isopropoxyphenyl)-N′-phenylurea]

Same assay, conditions: Table II; IC50 at CB1, GTP binding with 1 nM CP55,940; read-out: IC50

IC50, < 2000 nM:
CCCc1ccc(NC(=O)Nc2ccc(C#N)cc2)cc1 [Compound 197, N-(4-cyanophenyl)-N′-(4-propylphenyl)urea]
CCCCc1ccc(NC(=O)Nc2cccc(C)c2)cc1 [Compound 155, N-(4-butylphenyl)-N′-(3-methylphenyl)urea]
CCOc1cccc(NC(=O)Nc2ccccc2)c1 [Compound 222, N-(3-ethoxyphenyl)-N′-phenylurea]
O=C(Nc1ccc(OC(F)F)cc1)Nc1cccc(OC(F)(F)F)c1 [Compound 95, N-[4-(difluoromethoxy)phenyl]-N′-[3-(trifluoromethoxy)phenyl]urea]
Cc1ccc(NC(=O)Nc2ccc(OC(F)F)cc2)cc1C [Compound 90, N-[4-(difluoromethoxy)phenyl]-N′-(3,4-dimethylphenyl)urea]
O=C(Nc1ccc(Cl)cc1)Nc1ccc(OC(F)F)cc1 [Compound 257, N-(4-chlorophenyl)-N′-[4-(difluoromethoxy)phenyl]urea]
CCOc1cccc(NC(=O)Nc2cccc(C#N)c2)c1 [Compound 262, N-(3-cyanophenyl)-N′-(3-ethoxyphenyl)urea]
CC(=O)c1ccc(NC(=O)Nc2cccc(F)c2)cc1 [Compound 188, N-(4-acetylphenyl)-N′-(3-fluorophenyl)urea]
CCOc1ccc(NC(=O)Nc2cccc(C(C)=O)c2)cc1 [Compound 266, N-(3-acetylphenyl)-N′-(4-ethoxyphenyl)urea]
O=C(Nc1cccc(F)c1)Nc1cccc(OC(F)F)c1 [Compound 219, N-[3-(difluoromethoxy)phenyl]-N′-(3-fluorophenyl)urea]
COc1ccc(NC(=O)Nc2ccc(OC(F)F)cc2)cc1OC [Compound 92, N-[4-(difluoromethoxy)phenyl]-N′-(3,4-dimethoxyphenyl)urea]
Cc1ccc(NC(=O)Nc2ccc(F)cc2)cc1 [Compound 172, N-(4-fluorophenyl)-N′-(4-methylphenyl)urea]
CC(C)Oc1ccc(NC(=O)Nc2ccc(C#N)cc2)cc1 [Compound 279, N-(4-cyanophenyl)-N′-(4-isopropoxyphenyl)urea]
CCOc1cccc(NC(=O)Nc2cccc(F)c2)c1 [Compound 203, N-(3-ethoxyphenyl)-N′-(3-fluorophenyl)urea]
